Results published in patent publication US20170081383A1, “MELANOCORTIN ANALOGS HAVING ENHANCED ACTIVITY AND TRANSPORT” (Tensive Controls Inc., priority 2012, published 2017).
“Also recorded” adds a separate entry of the source. One block for each compound: values may come before it. Positions of bridges follow the written chain, without caps; N, C: chain ends. Non-standard residues stand in square brackets, D forms with d. Residues, ends and D or L forms follow the SMILES beside them. No end group written: not given here. β2Val = β2-Val (beta2-Val), beta-amino acid; d2Nal = N[C@H](Cc1ccc2ccccc2c1)C(=O)O; β3hV = CC(C)[C@H](N)CC(=O)O; β3hP = O=C(O)C[C@@H]1CCCN1; Nle = CCCC[C@H](N)C(=O)O

Columns and labels:
[1] = test system: urethane-anesthetized rats; experiment: Cardiovascular activity of melanocortin peptides (MAP, heart rate, ECG); settings: for Duration / Peak Heart Rate Response (BPM) / Peak MAP Response (Δ mm Hg): n = 5; for cardiovascular and behavioral side effects (in words): rats
Procedure: These studies were performed in urethane-anesthetized rats, since anesthesia is required for six-lead ECG monitoring. […] Initial selection of doses was guided by FDA exploratory IND studies with a recommendation for at least a 100-fold excess of the human dose.

[2] = test system: LPS-induced cachexia in rats; experiment: Lipopolysaccharide (LPS)-induced cachexia assay; assay type: in vivo, rat; settings: for blood-brain barrier transport (concluded from peripheral vs ICV activity) / anti-cachectic activity after ICV (IVt) administration (in words): LPS model; for anti-cachectic activity after ICV (IVt) administration (in words): intracerebroventricular administration; for peripheral (IP) anti-cachexia activity, feeding (in words): peripheral / intraperitoneal administration after LPS
Procedure: The LPS model uses rats were maintained on a 12 h light/dark schedule with ad libitum access to food and water. Animals were handled daily for a minimum of three consecutive days to decrease non-specific handling stress. On the day of the experiment, individually housed animals received intraperitoneal injections of LPS dissolved in 0.5% low-endotoxin BSA, 0.9% saline or 0.5% BSA in 0.9% saline alone, and were returned to their home cage. The drug or control was administered (ICV, IP, or PO, depending on the type of study) 1-hour after LPS injection.
In the experiments described herein, a series of melanocortin receptor antagonist peptides were examined in a bacterial endotoxin inducing cachexia assay. For this assay, a rat is challenged with a single peripheral injection of lipopolysaccharide (LPS). LPS is a heat-stable lipo-polysaccharide, the major component of the outer membrane (capsule) of gram negative bacteria. In non-capsulated strains, it appears as a cell surface […]. LPS produces a strong immune response, including secretion of the proinflammatory cytokines Tumor Necrosis Factor α (TNFα) and interleukin-1 (IL-1). Proinflammatory cytokines are known factors that induce cachexia.
Rats are maintained on a 12-hour light/dark cycle. Animals are handled daily for a minimum of 5 consecutive days to acclimate them to the handling required for the experiment. […] On the day of the experiment, individually housed animals receive intraperitoneal (IP) injections of LPS dissolved in 0.5% low-endotoxin BSA, 0.9% saline or 0.5% BSA in 0.9% saline alone, and returned in their home cage. Melanocortin receptor antagonist peptides were administered (IP or by gavage, depending on the type of study) one hour after the LPS injection. The extent of cachexia is measured by the reduction in food intake, measured every two hours. The cachexia typically lasts only a single day. However, rats lose up to 5% of their body weight during a 12-hour light cycle, making up this loss plus food needed for normal growth during the 12-hour dark cycle. Thus, failure to eat appropriately during a single dark cycle is determinable from the animal's weight and any changes thereof.
A series of melanocortin receptor antagonist peptides were examined in a bacterial toxin inducing cachexia assay. In this assay, a rat was challenged with a single peripheral injection of lipopolysaccharide (LPS), a bacterial toxin that rapidly induces acute cachexia. The extent of cachexia was measured as a reduction in food intake, measured every two hours. The cachexia typically lasts only a single day.

[3] = test system: Lewis sarcoma rat model; experiment: Lewis sarcoma rat model of cancer cachexia; assay type: in vivo
Procedure: This sarcoma is an aggressive form of cancer that produces significant cachexia. Popp et al., Cancer 49(6): 1212-1220 (1982). In the protocol, “treatment” began 8-days after tumor implantation, with a significant decrease in food intake from baseline. Body composition was determined by NMR prior to tumor implantation, and on the final day of the experiment after tumor resection, by ECHO MRI (NMR). Tumor implantation produces cachexia on or about the 6th day. Melanocortin drug therapy or saline was begun after day 8 and continued through day 12.
Prior to tumor implantation, both groups (drug or saline) had similar food intake (˜14 g/day). See FIGS. 2A and B. After tumor implantation, in saline-treated/tumor bearing controls, food intake decreased 35% to 9 g/day by day 8. FIGS. 3A-F. However, treatment with TCMCB01 reversed anorexia to a food intake similar to the control state.

Compound: CCCC[C@H](NC(C)=O)C(=O)N[C@H]1CC(=O)NCCCC[C@@H](C(=O)O)NC(=O)[C@H](Cc2c[nH]c3ccccc23)NC(=O)[C@H](CCCN=C(N)N)NC(=O)[C@@H](Cc2ccccc2)NC(=O)[C@H](Cc2cnc[nH]2)NC1=O [PT-141, Ac-Nle-c[Asp-His-D-Phe-Arg-Trp-Lys]-COOH]
Duration ([1]; 250 nmol): 140 ± 53 min
Peak Heart Rate Response (BPM) ([1]; 250 nmol): 44 ± 6 BPM
Peak MAP Response (Δ mm Hg) ([1]; 250 nmol): 32 ± 6 mm Hg
lethality ([1]; 900 nmol/kg IV, FIG. 1C): lethal dose
MAP reached after dosing ([1]; 900 nmol/kg IV, baseline MAP 80 mmHg, then precipitously falling): 140 mmHg
heart rate course after dosing ([1]; 900 nmol/kg IV, baseline heart rate 312): progressively fell
ECG tracing (lead 2) finding ([1]; IV 600 nmol/kg, FIG. 1A-B): inverted P-wave

blood-brain barrier transport (concluded from peripheral vs ICV activity) [2]: only has blood-brain barrier transport
Compound: CCCC[C@H](NC(C)=O)C(=O)N[C@H]1CC(=O)NCCCC[C@@H](C(=O)N2CCC[C@@H]2C(=O)N[C@@H](C(N)=O)C(C)C)NC(=O)[C@H](Cc2c[nH]c3ccccc23)NC(=O)[C@H](CCCNC(=N)N)NC(=O)[C@@H](Cc2ccc3ccccc3c2)NC(=O)[C@@H]2CCCN2C1=O [TCMCB02, Ac-Nle-c[Asp-Pro-D-Nal(2′)-Arg-Trp-Lys]-D-Pro-D-Val-NH2] (Ac-[Nle]DP[d2Nal]RWK[dP][dV]-NH2; lactam 2-7 (inferred))
cardiovascular and behavioral side effects (in words) [1]: no cardiovascular or dose-limiting behavioral side effects

Compound: Ac-Nle-c[Asp-His-D-Nal(2′)-Arg-Trp-Lys]-D-Pro-D-Val-NH2 (Ac-[Nle]DH[d2Nal]RWK[dP][dV]-NH2; lactam 2-7; SMILES CCCC[C@H](NC(C)=O)C(=O)N[C@H]1CC(=O)NCCCC[C@@H](C(=O)N2CCC[C@@H]2C(=O)N[C@@H](C(N)=O)C(C)C)NC(=O)[C@H](Cc2c[nH]c3ccccc23)NC(=O)[C@H](CCCNC(=N)N)NC(=O)[C@@H](Cc2ccc3ccccc3c2)NC(=O)[C@H](Cc2c[nH]cn2)NC1=O) [TCMCB03]
blood-brain barrier transport (concluded from peripheral vs ICV activity) [2]: failed to cross the blood brain barrier; also recorded: less blood-brain barrier transport activity
anti-cachectic activity after ICV (IVt) administration (in words) [2]: enhanced anti-cachexia; also recorded: superior anti-cachexia activity following ICV administration
peripheral (IP) anti-cachexia activity, feeding (in words) [2]: did not possess as good peripheral

Compound: Ac-Nle-c[Asp-His-D-Nal(2′)-Arg-Trp-Lys]-NH2 [SHU9119]
Peak Heart Rate Response (BPM) ([1]; 250 nmol): 3 ± 14 BPM
Peak MAP Response (Δ mm Hg) ([1]; 250 nmol): 16 ± 5 mm Hg

Compound: Ac-Nle-c[Asp-Pro-D-Nal(2′)-Arg-Trp-Lys]-D-Thr-D-Pro-D-Thr (Ac-[Nle]DP[d2Nal]RWK[dT][dP][dT]; lactam 2-7) [TCMCB01]
blood-brain barrier transport (concluded from peripheral vs ICV activity) [2]: insufficient blood brain barrier-transport; also recorded: no blood-brain barrier transport
anti-cachectic activity compared to the parent compound, PG932 ([2]; Lewis sarcoma rat model and LPS model): enhanced anti-cachectic activity
anti-cachectic activity after ICV (IVt) administration (in words) [2]: only produced an anti-cachexia effect when given by IVt administration
peripheral (IP) anti-cachexia activity, feeding (in words) [2]: did not have peripheral activity
reversal of cachexia-anorexia (food intake) ([3]; ICV, one time per day, 2 nmol, after day 8 through day 12): reversed the cachexia-anorexia of the tumor burden
dose producing the feeding effect relative to that used with previous synthetic melanocortin antagonists ([3]; Lewis model): one tenth
body weight after tumor implantation ([3]; drug treated group vs saline controls, FIG. 4): significantly greater than saline controls
tumor weight ([3]; equivalent in saline-treated and drug-treated group (p=0.2), FIG. 5): ~40 g
anti-cachectic response compared with AGRP and SHU9119 ([3]; food intake, Lewis sarcoma rats, FIG. 3): as potent as the natural melanocortin system inhibitor Agouti Related Protein (AGRP), and significantly more potent than SHU9119; also recorded: equivalent to AGRP
anti-cachectic effect greater than AGRP ([3]; related study (not shown), Lewis model): ~20%
lean body mass (NMR after tumor excision) ([3]; statistical significance only p=0.05, FIG. 6): increased lean body mass
Duration ([1]; 600 nmol): 0 min
Peak Heart Rate Response (BPM) ([1]; 600 nmol): 0/0 BPM
Peak MAP Response (Δ mm Hg) ([1]; 600 nmol): 0/0 mm Hg
cardiovascular and behavioral side effects (in words) [1]: no cardiovascular or dose-limiting behavioral side effects; also recorded: little cardiovascular activity

Compound: Ac-Nle-c[Asp-Pro-D-Nal(2′)-Arg-Trp-Lys]-D-Val-D-Pro-OH (Ac-[Nle]DP[d2Nal]RWK[dV][dP]-OH; lactam 2-7) [TCMCB07A]
peripheral (IP) anti-cachexia activity, feeding (in words) [2]: equivalent stimulation of feeding

Compound: Ac-Nle-c[Asp-Pro-D-Nal(2′)-Arg-Trp-Lys]-β^2-Val-β^3-Pro-NH2 (Ac-[Nle]DP[d2Nal]RWK[β2Val][β3hP]-NH2; lactam 2-7) [TCMCB08]
blood-brain barrier transport (concluded from peripheral vs ICV activity) [2]: good blood-brain barrier transport
oral activity / gastrointestinal transport (in words) ([2]; gavage (intra-gastric) administration, LPS cachexia): not as much oral activity as TCMCB07; also recorded: no gastrointestinal transport
peripheral (IP) anti-cachexia activity, feeding (in words) [2]: has peripheral activity

Compound: Ac-Nle-c[Asp-Pro-D-Nal(2′)-Arg-Trp-Lys]-β^3-Pro-β^3-Pro-NH2 (Ac-[Nle]DP[d2Nal]RWK[β3hP][β3hP]-NH2; lactam 2-7; SMILES CCCC[C@H](NC(C)=O)C(=O)N[C@H]1CC(=O)NCCCC[C@@H](C(=O)N2CCC[C@H]2CC(=O)N2CCC[C@H]2CC(N)=O)NC(=O)[C@H](Cc2c[nH]c3ccccc23)NC(=O)[C@H](CCCNC(=N)N)NC(=O)[C@@H](Cc2ccc3ccccc3c2)NC(=O)[C@@H]2CCCN2C1=O) [TCMCB10]
blood-brain barrier transport (concluded from peripheral vs ICV activity) [2]: failure to cross the blood-brain barrier
anti-cachectic activity after ICV (IVt) administration (in words) [2]: maintaining direct inhibitory effects
peripheral (IP) anti-cachexia activity, feeding (in words) [2]: no peripheral activity

Compound: Ac-Nle-c[Asp-Pro-D-Nal(2′)-Arg-Trp-Lys]-β^3-Pro-β^3-Val-NH2 (Ac-[Nle]DP[d2Nal]RWK[β3hP][β3hV]-NH2; lactam 2-7) [TCMCB06]
food intake, 24 hours after LPS challenge ([2]; 0.2 mg/kg intraperitoneally, FIG. 8A): ate significantly less food than the other drug candidates
body weight (percent of pre-LPS baseline), 24 hours after LPS challenge ([2]; 0.2 mg/kg intraperitoneally, FIG. 8B): no weight gain
molar activity relative to TCMCB02 ([2]; ICV administration, LPS-induced cachexia): 10 fold
anti-cachectic activity after ICV (IVt) administration (in words) [2]: molar activity equivalent to TCMCB02
peripheral (IP) anti-cachexia activity, feeding (in words) [2]: only TCMCB05 (β^3-Pro-β^2-Val) had IP anti-cachexia activity; also recorded: only TCMCB05 had peripheral anti-cachexia activity

Compound: Ac-Nle-c[Asp-Pro-D-Nal(2′)-Arg-Trp-Lys]-β^3-Val-β^3-Pro-NH2 (Ac-[Nle]DP[d2Nal]RWK[β3hV][β3hP]-NH2; lactam 2-7) [TCMCB09]
peripheral (IP) anti-cachexia activity, feeding (in words) [2]: inactive peripherally

Compound: Ac-Nle-c[D-Asp-Pro-D-Nal(2′)-Arg-Trp-D-Lys]-D-Pro-D-Val-NH2 (Ac-[Nle][dD]P[d2Nal]RW[dK][dP][dV]-NH2; lactam 2-7) [TCMCB04]
blood-brain barrier transport (concluded from peripheral vs ICV activity) [2]: eliminated blood brain barrier transport; also recorded: no transport across the blood-brain barrier
anti-cachectic activity after ICV (IVt) administration (in words) [2]: superior anti-cachectic activity compared to the parent compound
peripheral (IP) anti-cachexia activity, feeding (in words) [2]: No difference was observed between the peptide and saline

Compound: Ac-Ser-Tyr-Nle-Glu-His-D-Phe-Arg-Trp-Gly-Lys-Pro-Val-NH2 [MT-I]
Duration ([1]; 250 nmol): 0 min
Peak Heart Rate Response (BPM) ([1]; 250 nmol): 0/0 BPM
Peak MAP Response (Δ mm Hg) ([1]; 250 nmol): 0/0 mm Hg
